Test results: a melting point compilation (Tetko et al.; mined from patent text by program, amines drawn as free bases though some values may be those of a salt)

Point of comparison: `c1ccc2c(c1)c1ccccc1c1cc(-c3ccc4c5ccccc5c5ccccc5c4c3)ccc21`, melting point 356 °C. Against it:
- O=C(O)c1cc2nc(C(F)(F)F)ccc2n1Cc1cccc(F)c1 — lower, 254 to 255 °C
- O=C(O)COc1ccc(-c2nc3ncccc3[nH]2)c(O)c1 — lower, 235 °C
- CCCCn1cc(C(=O)C(=O)O)c2cc(-c3ccc(OC)cc3)ccc21 — lower, 172 to 173 °C
- CN(C)c1ccccc1CSC1=NC(SCc2ccccc2)=NC1(C)C — lower, 91 to 92 °C
- COc1ccc(C2=NN(CCCCBr)C(=O)[C@H]3CC=CC[C@@H]23)cc1Cl (relative stereo) — lower, 109 to 111 °C
- O=C1CCC2=C(CCc3cccc(Cl)c32)N1 — lower, 184 °C
- CCOC(=O)C1=C(C)NC(COC(C)=O)=C(C(=O)OCC)C1c1cccc([N+](=O)[O-])c1 (stereo unspecified) — lower, 133 to 135 °C
- CN(CCOc1ccc(NC(=O)c2cccc3c(=O)c4ccccc4[nH]c23)cc1)Cc1ccccc1 — lower, 173 °C
- Cc1nc(N)nc(CCCCCCCCCCO)c1O — lower, 103 to 104 °C
- O=[N+]([O-])c1ccc(NC=C(S(=O)(=O)c2ccccc2)S(=O)(=O)c2ccccc2)nc1 — lower, 229 to 231 °C
- CC(C)C(NC(=O)OCc1ccccc1)C(=O)NC(Cc1ccccc1)C(O)C(O)C(Cc1ccccc1)NC(=O)C(NC(=O)OCc1ccccc1)C(C)C (stereo unspecified) — lower, 231 to 232 °C
- O=C(Nc1ncc(C(F)(F)F)o1)C1c2ccccc2Oc2ccc(F)cc21 (racemic) — lower, 217 °C
- CCCCCCCCCCC[C@@H](O)CC(=O)O — lower, 70.6 to 71.4 °C
- COc1ccc(Cl)c(Nc2c(C#N)cnc3c2C=C2N=CN=C2C3)c1 — lower, 296 to 298 °C
- CSCc1ccc(NC(=O)/C=C/c2cnn(C)c2-c2ccc(SC)cc2)cc1 — lower, 145 to 146 °C
- COc1cc2c(N3CCN(C(=O)Nc4ccc(Oc5ccccc5)cc4)CC3)ncnc2c(OC)c1OC — lower, 83 to 84 °C
- CN1C(=O)[C@H](NC(=O)CNc2ccccc2Cl)N=C(c2ccccc2)c2ccccc21 — lower, 222 to 224 °C
- COC(=O)c1ccc([N+](=O)[O-])c(OCCO)c1 — lower, 97 to 98 °C
- NS(=O)(=O)c1cc2cc(CO)ccc2s1 — lower, 174 to 176 °C
- Cc1cccc(-c2nc3cccnn3c2-c2ccnc(NCC3CCCO3)c2)c1 (stereo unspecified) — lower, 137 to 138 °C
- C#CCn1c(-c2ccccc2)nc(C(=O)N(C)C)c(C)c1=O — lower, 137 to 140 °C
- CCOC(=O)Nc1ccc(C(=O)Nc2ccc3ccc(OC)nc3n2)cc1 — lower, 200 °C
- OC1CSC(Oc2cncc(-c3ncccc3Cl)c2)C(O)C1O (stereo unspecified) — lower, 193 °C
- COc1ccccc1N1CCN(CC2(C)N=C(c3ccccc3)NC2=O)CC1 (stereo unspecified) — lower, 86 to 89 °C
- CC[C@@H](CO)Nc1nc(-c2ccc(Br)cc2)cs1 — lower, 91 to 93 °C
- O=C(Nc1cccc(-c2ccnc3c(C(=O)c4cccs4)cnn23)c1)c1cnc[nH]1 — lower, 280 to 282 °C
- COc1ccc2cc(-c3nc(-c4ccncc4)no3)c(=O)oc2c1 — lower, 300 °C
- O=C(Nc1ccc(N(CCCl)CCCl)cc1)Nc1cc(CO)cc(Nc2c3ccccc3nc3ccccc23)c1 — lower, 173 to 175 °C
- O=C(NCCC(F)=C(F)F)N(c1ccccc1)c1ccccc1 — lower, 116 to 117 °C
- NC(CN1CCC(=C2c3ccccc3C=Cc3ccccc32)CC1)C(=O)NCC(=O)O (stereo unspecified) — lower, 175 to 176 °C
- C=CCON=C(CC)C1=C(O)CC(c2ccc(NS(C)(=O)=O)cc2)CC1=O (stereo unspecified) — lower, 134 to 135 °C
- Fc1ccc2nc(Cl)ccc2c1 — lower, 99 to 101 °C
- CCCS(=O)c1cccnc1S(=O)(=O)NC(C)(C)C (stereo unspecified) — lower, 138 to 140 °C
- O=S(=O)(Nc1ccc(Cl)c(F)c1)c1ccccc1 — lower, 115 to 116 °C
- Cc1cc(C)n2ncc(Br)c2n1 — lower, 115 to 116 °C
- CCOC(=O)c1csc(/C=C/c2cccc(N)c2)n1 — lower, 112 to 113 °C
- N#Cc1ccc2c(c1)ncn2-c1cccc(-c2cccnc2)c1 — lower, 191 to 193 °C
- O=C(Nc1ccc(Oc2ccnc(-n3ccnc3)n2)c2ccccc12)c1cc(F)cc(N2CCCCC2)c1 — lower, 175 to 176 °C
- CC12CCC(=O)C=C1CCC1C2CCC2(C)C(C(F)F)CCC12 (stereo unspecified) — lower, 137 to 140 °C
- CC(C)(C)OC(=O)Nc1ccc(-c2ccc(Cl)c(Cl)c2)cc1N — lower, 169 to 171 °C
- OCC1=CCN(Cc2ccccc2)CC1 — lower, 57 to 60 °C
- Cc1cc(C)cc([PH](=O)c2cc(C)cc(C)c2)c1 — lower, 82.4 °C
- CCCCCCCCSc1ccc(C#N)c(C#N)c1 — lower, 37 to 38 °C
- Cc1ccc(C(=O)O)c(NC(=O)C(F)(F)F)c1 — lower, 178 to 180 °C
- COC1CC(NC(=O)C(F)(F)F)C(C)(O)C(C)O1 (stereo unspecified) — lower, 133 to 134 °C
- CCOC(=O)c1c(C(F)F)nc(C(F)(F)F)c(C(=O)OC)c1NC(C)C — lower, 37 to 39 °C
- COC1(N(C)C)C=CC(C(=O)Nc2ccccc2)=CC1 (stereo unspecified) — lower, 173 °C
- Cc1nc(C#CCCc2nc3ccccc3o2)c[nH]1 — lower, 152 to 154 °C
- Cc1nnc(-c2ccc3occ(-c4ccc(C(N)=O)cc4)c3c2)o1 — lower, 250 to 251 °C
- N#CC1=C(C2CCNCC2)Nc2n[nH]cc2C1c1cccc2nonc12 (stereo unspecified) — lower, 216 °C
- Cc1nc[nH]c1CSCCN=C(NC#N)NCCSCc1[nH]cnc1C — lower, 92 to 95 °C
- O=S(=O)(C=Cc1ccccc1)N1CCc2c([nH]c3ccccc23)C1c1ccc2c(c1)OCO2 (stereo unspecified) — lower, 191 to 192 °C
- C/C(=C\c1ccc(C(=O)O)cc1)c1ccc2c(c1)C(C)(C)CCO2 — lower, 179 to 181 °C
- CCOC(=O)c1ncn2c1CN(Cc1ccc(OC)cc1OC)C(=O)c1sccc1-2 — lower, 168 °C
- CC(C)CCSc1cc(C(=O)O)cc([N+](=O)[O-])c1-c1ccccc1 — lower, 143 to 144 °C
- COC(=O)N(C1c2ccccc2-c2ccccc21)[C@H]1[C@H](C(=O)O)C[C@H]2C[C@@H]1C2(C)C — lower, 155 to 157 °C
- CCCCc1nc2c(OC)ccc(CCN(C)C)c2[nH]1 — lower, 116 to 122 °C
- O=C(Nc1ccc(CN2C(=O)[C@H]3CCC[C@H]3N(C(=O)CN3C(=O)c4ccccc4C3=O)c3ccccc32)cc1)c1ccccc1 (relative stereo) — lower, 252 to 255 °C
- COc1ccc(-c2cnc(C3(c4ccc(OC)c(OC)c4)NCCc4c3[nH]c3ccccc43)nc2)cc1OC (stereo unspecified) — lower, 184 to 186 °C
- Cc1nc2ncnn2c(O)c1Br — lower, 269 °C
- CC(=O)Nc1ccc([C@@H]2CO2)cn1 — lower, 96 to 98 °C
- O=C(CCO)NCc1ccc2ccn(C3CCN(CCc4ccccc4F)CC3)c2c1 — lower, 58 to 59 °C
- CCOC(=O)CCCOc1cc(C=Cc2ccc3ccc(Br)cc3n2)ccc1Cl — lower, 215 to 220 °C
- CC(C)c1cc(OS(C)(=O)=O)cc(C(C)C)c1NC(=O)CN1CCN(CCSc2nc3ccccc3o2)CC1 — lower, 115 to 117 °C
- COc1ccc(-c2sc3ccccc3c2C(=O)c2ccc(OCCN3CCCCC3)cc2)cc1 — lower, 41 to 44 °C
- CSc1nc(NCc2ccc(Br)cc2)n2ncc(C(C)C)c2n1 — lower, 171 to 172 °C
- Sc1nc(-c2ccc(Cl)cc2)c(-c2cccs2)[nH]1 — lower, 274 to 276 °C
- COc1ccc(Cc2ccc(C(=O)O)nc2)cc1 — lower, 145 to 147 °C
- Cc1cc(Cl)ccc1NC(=S)NC(=O)c1ccccc1 — lower, 148 °C
- CCCCNc1cc(CN(Cc2ccccc2)C(C)=O)cc(S(N)(=O)=O)c1Oc1ccccc1 — lower, 75 to 77 °C
